Source: patent US20220120736A1, “METHODS AND ASSAYS FOR MODULATING GENE TRANSCRIPTION BY MODULATING CONDENSATES” (Whitehead Institute for Biomedical Research, priority 2018, published 2022)

Assays:
Format in all cases: cell-based
[1] = tested on: ER LBD point mutant-MED1 condensate in U2OS-Lac cells; experiment: LAC binding assay, ER LBD point mutants tethered to Lac array; settings: ER mutants (Y537S, D538G)
Method: Constructs were assembled by NEB HIFI cloning in pSV2 mammalian expression vector containing an SV40 promoter driving expression of a CFP-LacI fusion protein. The activation domains and mutant activation domains of ESR1 were fused by the c-terminus to this recombinant protein, joined by the linker sequence […] (SEQ ID NO: 14). For some experiments a variant plasmid with mCherry in place of CFP was used. […] Cells were then plated on fibronectin-coated glass coverslips and transfected using lipofectamine 3000 (Thermofisher L3000015). For high MED1 conditions, a construct with a mammalian expression vector containing a PGK promoter driving the expression of MED1 fused to GFP was co-transfected. […]
For analysis of Lac array data, custom Python scripts were written to process and analyze image data gathered in Lac and tagged-protein channels. […] Segmented regions (also determined by measure.label) were then filtered based on minimum area (150 pixels), maximum area (2000 pixels), circularity (c=4pi*area/perimeter^2; 0.8), and presence in a nucleus as defined by the mask described above. A norm enrichment ratio was calculated by determining the mean intensity of the tagged-protein in the segmented Lac spot and dividing it by the mean intensity of the tagged-protein present in the same whole nucleus.

[2] = tested on: ER LBD-MED1 condensate in U2OS-Lac cells; experiment: Live cell imaging of U2OS-Lac cells with endogenously tagged MED1-mEGFP; settings: after 10 nM B-Estradiol 45 minutes; 10 uM 4-Hydroxytamoxifen, 30 minutes
Method: Cells were imaged pre-treatment and 30 minutes after treatment with a 1:1000 dilution of DMSO or 10 uM 4-Hydroxytamoxifen in Estrogen-free DMEM. Quantification was performed in FIJI; the instrument background was subtracted from the average signal intensity in the array, then divided by the instrument background subtracted from an average nuclear signal to yield the normalized signal intensity.

[3] = tested on: ER LBD (GAL4 DNA-binding domain fusion) in HEK293T cells; experiment: GAL4 transactivation assay; settings: elevated MED1 levels; 10 nM Tamoxifen, 24 hours
Description: (SEQ ID NO: 14). […] For high MED1 conditions, a construct with a mammalian expression vector containing a PGK promoter driving the expression of MED1 fused to GFP was co-transfected.

Row | SMILES | MED1 condensate formation at tethered ER LBD, dependence on estrogen [1] | Effect on ER LBD-MED1 condensate, live cell imaging [2] | GAL4 transactivation with tamoxifen-bound ER [3]
1 | C[C@]12CC[C@@H]3c4ccc(O)cc4CC[C@H]3[C@@H]1CC[C@@H]2O [estrogen, B-Estradiol] | both in the presence and absence of estrogen | – | –
2 | CC/C(=C(\c1ccccc1)c1ccc(OCCN(C)C)cc1)c1ccccc1 [tamoxifen] | – | dissolves the ER LBD-MED1 condensate | showed activation
